Test results reported in patent US20230131899A1, “INHIBITORS OF MICROBIALLY INDUCED AMYLOID” (Axial Therapeutics, Inc., priority 2020, published 2023).
Like-named read-outs stand apart in the source and are kept apart here.

Target: T1, human α-synuclein (Homo sapiens, UniProt P37840)
T1 construct: the full-length gene for untagged human α-synuclein was inserted; made in house; host or cells: E. coli BL21(DE3), plasmid derived from pT7 or pET11a
Test: Cell-free Thioflavin T assay of α-synuclein aggregation (αSyn ThT Assay)
Type: biochemical
Conditions: αSyn 50 μM
Method in brief: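 Inhibition is reported as 100% minus background-corrected ThT signal relative to vehicle wells, taken at 36, 47, 48 or 72 h or the last read. Reactions held 50 μM recombinant α-synuclein, 20-100 μM compound, 20-40 μM ThT and 1% DMSO. Incubation was at 37° C., shaken, with a glass bead.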

[1] = class symbol, compounds 100 μM, read-out: αSyn ThT Assay % inhibition, activity range
[2] = mean percent inhibition relative to DMSO control, compounds 100 μM, read-out: αSyn ThT Assay % inhibition
[3] = mean % inhibition of αSyn aggregation relative to DMSO control, compounds at 100 μM, read-out: αSyn ThT Assay % Inhibition
[4] = compounds at 100 μM, class symbol, read-out: αSyn ThT Assay % Inhibition (activity range)

Row | SMILES | inhibition at 100 µM [1] [%] | inhibition at 100 µM [2] [%] | inhibition at 100 µM [3] [%] | inhibition at 100 µM [4] [%]
1 | O=C(O)C1CN(Cc2ccc(-c3ccccc3)cc2)c2c(-c3cccc(C(F)(F)F)c3)c(Cc3cccc4ccccc34)c(Cl)c(=O)n21 (stereo not shown) [Compound 202, 1-([1,1′-biphenyl]-4-ylmethyl)-6-chloro-7-(naphthalen-1-ylmethyl)-5-oxo-8-(3-(trifluoromethyl)phenyl)-1,2,3,5-tetrahydroimidazo[1,2-a]pyridine-3-carboxylic acid] | 31 to 60 | 54 | – | –
2 | O=C(O)C1CN(Cc2ccccc2)c2c(-c3cccc(C(F)(F)F)c3)c(Cc3cccc4ccccc34)c(Br)c(=O)n21 (stereo not shown) [Compound 003, 1-benzyl-6-bromo-7-(naphthalen-1-ylmethyl)-5-oxo-8-(3-(trifluoromethyl)phenyl)-1,2,3,5-tetrahydroimidazo[1,2-a]pyridine-3-carboxylic acid] | > 60 | 76 | – | –
3 | CCCNC(=O)c1c(Cc2cccc3ccccc23)c(-c2cccc(C(F)(F)F)c2)c2n(c1=O)C(C(=O)O)CN(C)S2(=O)=O (stereo not shown) [Compound 154, 2-methyl-8-(naphthalen-1-ylmethyl)-6-oxo-7-(propylcarbamoyl)-9-(3-(trifluoromethyl)phenyl)-3,4-dihydro-2H,6H-pyrido[1,2-e][1,2,5]thiadiazine-4-carboxylic acid 1,1-dioxide] | > 60 | 89 | – | –
4 | O=C(O)C1CN(CCC2CCCCC2)c2c(-c3cccc(C(F)(F)F)c3)c(Cc3cccc4ccccc34)c(Cl)c(=O)n21 (stereo not shown) [Compound 207, 6-chloro-1-(2-cyclohexylethyl)-7-(naphthalen-1-ylmethyl)-5-oxo-8-(3-(trifluoromethyl)phenyl)-1,2,3,5-tetrahydroimidazo[1,2-a]pyridine-3-carboxylic acid] | > 60 | 71 | – | –
5 | CC(C)N1CC(C(=O)O)n2c1c(-c1cccc(C(F)(F)F)c1)c(Cc1cccc3ccccc13)c(Cl)c2=O (stereo not shown) [Compound 179, 6-chloro-1-isopropyl-7-(naphthalen-1-ylmethyl)-5-oxo-8-(3-(trifluoromethyl)phenyl)-1,2,3,5-tetrahydroimidazo[1,2-a]pyridine-3-carboxylic acid] | > 60 | 72 | – | –
6 | O=C(O)C1CN(CC2CCCC2)c2c(-c3cccc(C(F)(F)F)c3)c(Cc3cccc4ccccc34)c(Cl)c(=O)n21 (stereo not shown) [Compound 167, 6-chloro-1-(cyclopentylmethyl)-7-(naphthalen-1-ylmethyl)-5-oxo-8-(3-(trifluoromethyl)phenyl)-1,2,3,5-tetrahydroimidazo[1,2-a]pyridine-3-carboxylic acid] | 31 to 60 | 45 | – | –
7 | O=C(O)C1CN(CCCO)S(=O)(=O)c2c(-c3cccc(C(F)(F)F)c3)c(Cc3cccc4ccccc34)cc(=O)n21 (stereo not shown) [Compound 056, 2-(3-hydroxypropyl)-8-(naphthalen-1-ylmethyl)-6-oxo-9-(3-(trifluoromethyl)phenyl)-3,4-dihydro-2H,6H-pyrido[1,2-e][1,2,5]thiadiazine-4-carboxylic acid 1,1-dioxide] | – | – | 59 | 31 to 60
8 | O=C(O)C1CN(Cc2ccncc2)c2c(-c3cccc(C(F)(F)F)c3)c(Cc3cccc4ccccc34)c(Cl)c(=O)n21 (stereo not shown) [Compound 174, 6-chloro-7-(naphthalen-1-ylmethyl)-5-oxo-1-(pyridin-4-ylmethyl)-8-(3-(trifluoromethyl)phenyl)-1,2,3,5-tetrahydroimidazo[1,2-a]pyridine-3-carboxylic acid] | 11 to 30 | 23 | – | –
9 | O=C(O)c1c(CCc2ccccc2)sc2c(-c3cccc(C(F)(F)F)c3)c(Cc3cccc4ccccc34)cc(=O)n12 [Compound 062, 7-(naphthalen-1-ylmethyl)-5-oxo-2-phenethyl-8-(3-(trifluoromethyl)phenyl)-5H-thiazolo[3,2-a]pyridine-3-carboxylic acid] | – | – | 87 | > 60
10 | CN1CC(C(=O)O)n2c(c(-c3cccc(C(F)(F)F)c3)c(Cc3cccc4ccccc34)c(NCc3ccccc3)c2=O)S1(=O)=O (stereo not shown) [Compound 071] | – | – | 38 | 31 to 60
11 | O=C(O)C1COc2c(-c3cccc(C(F)(F)F)c3)c(Cc3cccc4ccccc34)cc(=O)n21 (stereo not shown) [Compound 064, 7-(naphthalen-1-ylmethyl)-5-oxo-8-(3-(trifluoromethyl)phenyl)-2,3-dihydro-5H-oxazolo[3,2-a]pyridine-3-carboxylic acid] | – | – | 37 | 31 to 60
12 | COc1ccc(CN2CC(C(=O)O)n3c2c(-c2cccc(C(F)(F)F)c2)c(Cc2cccc4ccccc24)c(Cl)c3=O)cc1 (stereo not shown) [Compound 192, 6-chloro-1-(4-methoxybenzyl)-7-(naphthalen-1-ylmethyl)-5-oxo-8-(3-(trifluoromethyl)phenyl)-1,2,3,5-tetrahydroimidazo[1,2-a]pyridine-3-carboxylic acid] | 31 to 60 | 59 | – | –
13 | Nc1c(Cc2ccc(N)c3ccccc23)c(-c2cccc(C(F)(F)F)c2)c2n(c1=O)C(C(=O)O)CNS2(=O)=O (stereo not shown) [Compound 041] | – | – | 25 | 11 to 30
14 | CC(C)(C)c1ccc(Cc2c(-c3cccc(C(F)(F)F)c3)c3n(c(=O)c2Cl)C(C(=O)O)CN3Cc2ccccc2)cc1 (stereo not shown) [Compound 216, 1-benzyl-7-(4-(tert-butyl)benzyl)-6-chloro-5-oxo-8-(3-(trifluoromethyl)phenyl)-1,2,3,5-tetrahydroimidazo[1,2-a]pyridine-3-carboxylic acid] | 31 to 60 | 46 | – | –
15 | O=C(O)C1CN(Cc2ccccc2CO)c2c(-c3cccc(C(F)(F)F)c3)c(Cc3cccc4ccccc34)c(Cl)c(=O)n21 (stereo not shown) [Compound 181, 6-chloro-1-(2-(hydroxymethyl)benzyl)-7-(naphthalen-1-ylmethyl)-5-oxo-8-(3-(trifluoromethyl)phenyl)-1,2,3,5-tetrahydroimidazo[1,2-a]pyridine-3-carboxylic acid] | 31 to 60 | 31 | – | –
16 | O=C(O)C1n2c(c(-c3cccc(C(F)(F)F)c3)c(Cc3cccc4ccccc34)nc2=O)SC12CCCC2 (stereo not shown) [Compound 053, 7′-(naphthalen-1-ylmethyl)-5′-oxo-8′-(3-(trifluoromethyl)phenyl)-3′H,5′H-spiro[cyclopentane-1,2′-thiazolo[3,2-c]pyrimidine]-3′-carboxylic acid] | – | – | 65 | > 60
17 | CN(C)C(=O)c1c(Cc2cccc3ccccc23)c(-c2cccc(C(F)(F)F)c2)c2n(c1=O)C(C(=O)O)CN(C)S2(=O)=O (stereo not shown) [Compound 173, 7-(dimethylcarbamoyl)-2-methyl-8-(naphthalen-1-ylmethyl)-6-oxo-9-(3-(trifluoromethyl)phenyl)-3,4-dihydro-2H,6H-pyrido[1,2-e] [1,2,5] thiadiazine-4-carboxylic acid 1,1-dioxide] | > 60 | 86 | – | –
18 | O=C(O)C1CN(CCCCCCN2CC(C(=O)O)n3c2c(-c2cccc(C(F)(F)F)c2)c(Cc2cccc4ccccc24)c(Cl)c3=O)c2c(-c3cccc(C(F)(F)F)c3)c(Cc3cccc4ccccc34)c(Cl)c(=O)n21 (stereo not shown) [Compound 193, 1,1′-(hexane-1,6-diyl)bis(6-chloro-7-(naphthalen-1-ylmethyl)-5-oxo-8-(3-(trifluoromethyl)phenyl)-1,2,3,5-tetrahydroimidazo[1,2-a]pyridine-3-carboxylic acid)] | > 60 | 69 | – | –
19 | O=C(O)[C@H]1CN(Cc2ccccc2)c2c(-c3cccc(C(F)(F)F)c3)c(Cc3cccc4ccccc34)c(Cl)c(=O)n21 (single isomer, unassigned) [Compound 004b] | 31 to 60 | 44 | – | –
20 | CC1(C)Sc2c(-c3cccc(C(F)(F)F)c3)c(Cc3cccc4ccccc34)nc(=O)n2C1C(=O)O (stereo not shown) [Compound 059, 2,2-dimethyl-7-(naphthalen-1-ylmethyl)-5-oxo-8-(3-(trifluoromethyl)phenyl)-2,3-dihydro-5H-thiazolo[3,2-c]pyrimidine-3-carboxylic acid] | – | – | 36 | 31 to 60
21 | CNC(=O)CCCCN1CC(C(=O)O)n2c(c(-c3cccc(C(F)(F)F)c3)c(Cc3cccc4ccccc34)cc2=O)S1(=O)=O (stereo not shown) [Compound 038, 2-(5-(methylamino)-5-oxopentyl)-8-(naphthalen-1-ylmethyl)-6-oxo-9-(3-(trifluoromethyl)phenyl)-3,4-dihydro-2H,6H-pyrido[1,2-e][1,2,5]thiadiazine-4-carboxylic acid 1,1-dioxide] | – | – | 42 | 31 to 60
22 | O=C(O)C1CN(C[C@H](O)CO)S(=O)(=O)c2c(-c3cccc(C(F)(F)F)c3)c(Cc3cccc4ccccc34)cc(=O)n21 (stereo partly drawn) [Compound 065a, 2-((S)-2,3-dihydroxypropyl)-8-(naphthalen-1-ylmethyl)-6-oxo-9-(3-(trifluoromethyl)phenyl)-3,4-dihydro-2H,6H-pyrido[1,2-e][1,2,5]thiadiazine-4-carboxylic acid 1,1-dioxide] | – | – | 32 | 31 to 60
23 | CCc1c(Cc2cccc3ccccc23)c(-c2cccc(C(F)(F)F)c2)c2n(c1=O)C(C(=O)O)CN2Cc1ccccc1 (stereo not shown) [Compound 140, 1-benzyl-6-ethyl-7-(naphthalen-1-ylmethyl)-5-oxo-8-(3-(trifluoromethyl)phenyl)-1,2,3,5-tetrahydroimidazo[1,2-a]pyridine-3-carboxylic acid] | 31 to 60 | 48 | – | –
